Results taken from patent US8664399B2, “Substituted heterocyclic compounds as ion channel modulators” (Gilead Sciences, Inc., priority 2008, dated 2014).

target: T1, human cardiac sodium channel, hNav1.5 (Homo sapiens, UniProt Q14524); experiment: Late INa screening assay (automated whole cell patch clamp, PatchXpress; late current generated with 10 μM Tefluthrin); format: cell-based; conditions: 1 μM test compound; HEK293 cells expressing hNav1.5
T1 construct: host or cells: HEK293
Procedure: The late sodium current (Late INa) and peak sodium current (Peak INa) assays were performed on an automated electrophysiology platform, PatchXpress 7000A (MDS Analytical Technologies, Sunnyvale, Calif.), which uses the whole cell patch clamp technique to measure currents through the cell membrane of up to 16 cells at a time. The assay uses an HEK293 (human embryonic kidney) cell line heterologously expressing the wild-type human cardiac sodium channel, hNav1.5, purchased from Millipore (Billerica, Mass.). No beta subunits were coexpressed with the Na channel alpha subunit. Cells were maintained with standard tissue culture procedures and stable channel expression was maintained with 400 μg/ml Geneticin in the culture medium. Cells isolated for use on PatchXpress were incubated for 5 minutes in Versene 1X and then for 2 minutes in 0.0125% Trypsin-EDTA (both at 37° C.) to ensure that 80-90% of the cells are single and not part of a cell cluster. Experiments were carried out at 24-27° C.
For both the Late INa and Peak INa assays, series resistance compensation was set to 50% and whole-cell compensation is performed automatically. Currents were low-pass filtered at 10 kHz and digitized at 31.25 kHz. Currents through open sodium channels were automatically recorded and stored in the DataXpress2 database (MDS Analytical Technologies, Sunnyvale, Calif.). Analysis is performed using DataXpress2 analysis software and data are compiled in Excel.
Compound stocks were routinely made in glass vials to 10 mM in dimethyl sulfoxide (DMSO). In some cases, when compounds were not soluble in DMSO, they were made in 100% ethanol. Stocks were sonicated as necessary. The extracellular solution for screening Late INa was composed of: 140 mM NaCl, 4 mM KCl, 1.8 mM CaCl2, 0.75 mM MgCl2, and 5 mM HEPES with pH adjusted to 7.4 using NaOH. The extracellular solution for screening Peak INa was composed of: 20 mM NaCl, 120 mM N-methyl-D glucamine, 4 mM KCl, 1.8 mM CaCl2, 0.75 mM MgCl2, and 5 mM HEPES with pH adjusted to 7.4 using HCl. The intracellular solution used to perfuse the inside of the cells for both the Late INa and Peak INa assays contained: 120 mM CsF, 20 mM CsCl, 5 mM EGTA, 5 mM HEPES and pH adjusted to 7.4 with CsOH. […] The 0Na extracellular solution used at the end of each experiment for the Late INa and Peak INa assays to measure baseline current contained: 140 mM N-methyl-D-glucamine; 4 mM KCl; 1.8 mM CaCl2; 0.75 mM MgCl2; 5 mM HEPES and pH was adjusted to 7.4 with HCl.
For the Late INa assay, sodium channels were activated every 10 seconds (0.1 Hz) by depolarizing the cell membrane to −20 mV for 250 milliseconds (ms) from a holding potential of −120 mV. In response to a −20 mV voltage step, typical Nav1.5 sodium currents activate rapidly to a peak negative current and then inactivate nearly completely within 3-4 ms.
All compounds were tested to determine their activity in blocking the late sodium current. Late INa current was generated by adding 10 μM Tefluthrin (pyrethroid) to the extracellular solution while recording Na currents.

T1 sequence (Q14524 whole entry): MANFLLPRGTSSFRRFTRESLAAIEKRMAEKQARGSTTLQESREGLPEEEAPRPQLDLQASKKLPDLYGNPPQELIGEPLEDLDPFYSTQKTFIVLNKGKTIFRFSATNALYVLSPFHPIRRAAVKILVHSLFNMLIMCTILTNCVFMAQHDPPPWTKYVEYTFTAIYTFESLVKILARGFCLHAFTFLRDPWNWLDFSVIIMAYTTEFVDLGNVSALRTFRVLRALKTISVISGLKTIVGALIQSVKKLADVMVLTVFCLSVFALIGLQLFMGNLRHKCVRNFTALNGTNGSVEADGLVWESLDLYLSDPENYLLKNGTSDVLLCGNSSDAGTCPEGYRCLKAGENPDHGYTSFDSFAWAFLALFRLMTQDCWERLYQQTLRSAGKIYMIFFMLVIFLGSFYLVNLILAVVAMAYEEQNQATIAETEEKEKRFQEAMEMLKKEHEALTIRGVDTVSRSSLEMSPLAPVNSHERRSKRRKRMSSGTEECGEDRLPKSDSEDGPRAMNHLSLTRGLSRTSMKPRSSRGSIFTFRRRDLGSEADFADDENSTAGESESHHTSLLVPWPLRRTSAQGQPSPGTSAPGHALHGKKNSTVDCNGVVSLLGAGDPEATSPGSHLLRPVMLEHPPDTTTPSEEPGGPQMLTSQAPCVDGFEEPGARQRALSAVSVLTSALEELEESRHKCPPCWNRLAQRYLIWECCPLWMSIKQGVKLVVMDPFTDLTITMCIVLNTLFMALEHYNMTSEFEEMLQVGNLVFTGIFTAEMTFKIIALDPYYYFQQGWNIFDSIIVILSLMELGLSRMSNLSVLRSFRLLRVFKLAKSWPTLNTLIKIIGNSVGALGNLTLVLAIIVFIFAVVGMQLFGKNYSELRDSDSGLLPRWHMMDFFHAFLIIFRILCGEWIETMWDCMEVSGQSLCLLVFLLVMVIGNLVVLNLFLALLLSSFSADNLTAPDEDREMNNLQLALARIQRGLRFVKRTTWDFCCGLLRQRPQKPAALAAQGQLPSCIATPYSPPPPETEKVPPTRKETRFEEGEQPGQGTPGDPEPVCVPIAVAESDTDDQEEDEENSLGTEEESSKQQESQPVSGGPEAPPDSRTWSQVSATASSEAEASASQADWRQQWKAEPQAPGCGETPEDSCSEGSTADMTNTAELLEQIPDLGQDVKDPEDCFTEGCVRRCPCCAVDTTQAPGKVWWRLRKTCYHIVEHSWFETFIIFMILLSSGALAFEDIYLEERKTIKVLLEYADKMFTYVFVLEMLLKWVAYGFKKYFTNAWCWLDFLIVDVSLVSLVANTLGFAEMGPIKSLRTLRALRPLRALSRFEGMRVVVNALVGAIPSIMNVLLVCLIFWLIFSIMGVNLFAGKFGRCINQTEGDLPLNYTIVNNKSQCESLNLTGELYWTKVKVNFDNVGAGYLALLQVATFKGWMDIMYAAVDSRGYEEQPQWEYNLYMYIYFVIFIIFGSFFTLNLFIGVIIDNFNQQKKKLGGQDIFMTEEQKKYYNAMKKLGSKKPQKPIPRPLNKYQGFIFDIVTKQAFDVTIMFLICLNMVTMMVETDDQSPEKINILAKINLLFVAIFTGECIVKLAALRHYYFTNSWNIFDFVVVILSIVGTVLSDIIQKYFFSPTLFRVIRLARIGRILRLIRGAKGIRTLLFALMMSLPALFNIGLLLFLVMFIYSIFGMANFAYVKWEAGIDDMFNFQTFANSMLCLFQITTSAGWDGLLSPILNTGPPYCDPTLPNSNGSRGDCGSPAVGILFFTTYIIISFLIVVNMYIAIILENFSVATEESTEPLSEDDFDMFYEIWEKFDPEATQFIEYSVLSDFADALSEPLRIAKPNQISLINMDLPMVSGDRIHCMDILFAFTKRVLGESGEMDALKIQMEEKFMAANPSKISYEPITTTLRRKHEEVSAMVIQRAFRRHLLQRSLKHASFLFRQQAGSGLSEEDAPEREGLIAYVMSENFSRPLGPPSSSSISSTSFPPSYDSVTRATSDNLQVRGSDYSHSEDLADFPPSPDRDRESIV

| Structure (SMILES) | Late Ina % blk (1 μM test cmpd) |
| --- | --- |
| Cc1nc2ccccc2c(C)c1C(=O)OCc1ccccc1Br [PT-028, 2-bromobenzyl 2,4-dimethylquinoline-3-carboxylate] | 39.2% |

same assay, conditions: 10 μM test compound; HEK293 cells expressing hNav1.5; read-out: Late Ina % blk (10 μM test cmpd)

| Structure (SMILES) | inhibition at 10 µM |
| --- | --- |
| CCOC(=O)c1c(C)nc2ccc(Cl)cc2c1-c1ccccc1F [PT-030, ethyl 6-chloro-4-(2-fluorophenyl)-2-methylquinoline-3-carboxylate] | 55.4% |
| Cc1nc2ccccc2c(C)c1-c1nnc(C(C)(C)c2ccc(Cl)cc2)o1 [PT-031, 3-{5-[2-(4-chlorophenyl)propan-2-yl]-1,3,4-oxadiazol-2-yl}-2,4-dimethylquinoline] | 64.4% |
| Cc1nc2ccc(Cl)cc2c(C)c1C(=O)OCc1ccccc1Br [PT-032, 2-bromobenzyl 6-chloro-2,4-dimethylquinoline-3-carboxylate] | 82.4% |
| Cc1nc2ccccc2c(C)c1C(=O)OCc1ccccc1Br [PT-028, 2-bromobenzyl 2,4-dimethylquinoline-3-carboxylate] | 82.4% |
| CCOC(=O)c1c(C)nc2ccc(Cl)cc2c1-c1ccccc1Cl [PT-021, ethyl 6-chloro-4-(2-chlorophenyl)-2-methylquinoline-3-carboxylate] | 70.2% |
| CCOC(=O)c1c(C)nc2ccc(Cl)cc2c1-c1ccccc1 [PT-029, ethyl 6-chloro-2-methyl-4-phenylquinoline-3-carboxylate] | 70.2% |
| CCOCc1nc2ccccc2c(C)c1C(=O)OCC [PT-026, ethyl 2-(ethoxymethyl)-4-methylquinoline-3-carboxylate] | 23.4% |
| COC(=O)c1c(C)nc2ccccc2c1C [PT-025, methyl 2,4-dimethylquinoline-3-carboxylate] | 26.6% |
| Cc1nc2ccc(Cl)cc2c(-c2ccccc2)c1C(=O)NCc1ccc(F)cc1 [PT-003, 6-chloro-N-(4-fluorobenzyl)-2-methyl-4-phenylquinoline-3-carboxamide] | 26.3% |
| CCOC(=O)c1c(CCl)nc2ccc(Cl)cc2c1-c1ccccc1 [PT-006, ethyl 6-chloro-2-(chloromethyl)-4-phenylquinoline-3-carboxylate] | 48.8% |
| CCOC(=O)c1c(CN2C(=O)c3ccccc3C2=O)nc2ccc(Cl)cc2c1-c1ccccc1 [PT-007, ethyl 6-chloro-2-[(1,3-dioxo-1,3-dihydro-2H-isoindol-2-yl)methyl]-4-phenylquinoline-3-carboxylate] | 24% |
| Cc1nc2ccc(Cl)cc2c(-c2ccccc2)c1C(=O)N1CCC(c2ccc(C(N)=O)cc2)CC1 [PT-017, 4-{1-[(6-chloro-2-methyl-4-phenylquinolin-3-yl)carbonyl]piperidin-4-yl}benzamide] | 29.4% |
| CCOC(=O)c1c(COc2ccc(Cl)cc2OC)nc2ccc(Cl)cc2c1-c1ccccc1 [PT-011, ethyl 6-chloro-2-[(4-chloro-2-methoxyphenoxy)methyl]-4-phenylquinoline-3-carboxylate] | 18.1% |
| Cc1nc2ccc(Cl)cc2c(-c2ccccc2Cl)c1C(=O)OCc1ccccc1Br [PT-027, 2-bromobenzyl 6-chloro-4-(2-chlorophenyl)-2-methylquinoline-3-carboxylate] | 45.3% |
| Cc1nc2ccccc2c(-c2ccccc2)c1C(=O)OCc1ccccc1 [PT-001, benzyl 2-methyl-4-phenylquinoline-3-carboxylate] | 78.3% |
| Cc1nc2ccc(Cl)cc2c(-c2ccccc2)c1C(=O)O[C@@H](C)c1ccccc1 [PT-014, (1S)-1-phenylethyl 6-chloro-2-methyl-4-phenylquinoline-3-carboxylate] | 36.1% |
| Cc1nc2ccc(Cl)cc2c(-c2ccccc2)c1C(=O)OC(C)(C)C [PT-002, Tert-butyl 6-chloro-2-methyl-4-phenylquinoline-3-carboxylate] | 61.1% |
| Cc1nc2ccc(Cl)cc2c(-c2ccccc2)c1C(=O)OC(c1ccccc1)C1CC1 (stereo not shown) [PT-012, cyclopropyl(phenyl)methyl 6-chloro-2-methyl-4-phenylquinoline-3-carboxylate] | 20.5% |
| CCOC(=O)c1c(CN(C)C)nc2ccc(Cl)cc2c1-c1ccccc1 [PT-024, ethyl 6-chloro-2-[(dimethylamino)methyl]-4-phenylquinoline-3-carboxylate] | 57.8% |
| Cc1nc2ccc(Cl)cc2c(-c2ccccc2F)c1C(=O)OC(C)(C)C [PT-022, Tert-butyl 6-chloro-4-(2-fluorophenyl)-2-methylquinoline-3-carboxylate] | 46.9% |
| Cc1nc2ccc(Cl)cc2c(-c2ccccc2)c1C(=O)OCc1ccc(Cn2cccn2)cc1 [PT-018, 4-(1H-pyrazol-1-ylmethyl)benzyl 6-chloro-2-methyl-4-phenylquinoline-3-carboxylate] | 54.5% |
| Cc1nc2ccc(Cl)cc2c(-c2ccccc2)c1C(=O)O[C@H](C)c1ccccc1 [PT-015, (1R)-1-phenylethyl 6-chloro-2-methyl-4-phenylquinoline-3-carboxylate] | 37% |
| Cc1nc2ccc(Cl)cc2c(-c2ccccc2)c1C(=O)N1CCCCC1 [PT-013, (6-chloro-2-methyl-4-phenylquinolin-3-yl)(piperidin-1-yl)methanone] | 30.2% |
| Cc1nc2ccc(Cl)cc2c(-c2ccccc2Cl)c1C(=O)OC(C)(C)C [PT-020, Tert-butyl 6-chloro-4-(2-chlorophenyl)-2-methylquinoline-3-carboxylate] | 32.9% |
| Cc1nc2ccc(Cl)cc2c(-c2ccccc2)c1C(C)O (stereo not shown) [PT-023, 1-(6-chloro-2-methyl-4-phenylquinolin-3-yl)ethanol] | 29.8% |
| N#Cc1c(N)nc2ccc(Cl)cc2c1-c1ccccc1 [PT-004, 2-amino-6-chloro-4-phenylquinoline-3-carbonitrile] | 15.2% |

target: T2, hERG potassium channel (Homo sapiens, UniProt Q12809); experiment: hERG screening assay (PatchXpress automated patch clamp, CHO cell line); format: cell-based; conditions: 1 μm test compound; CHO cells
T2 construct: expressed in transfected cells; host or cells: CHO (Chinese Hamster Ovary)
T2 sequence (Q12809 whole entry): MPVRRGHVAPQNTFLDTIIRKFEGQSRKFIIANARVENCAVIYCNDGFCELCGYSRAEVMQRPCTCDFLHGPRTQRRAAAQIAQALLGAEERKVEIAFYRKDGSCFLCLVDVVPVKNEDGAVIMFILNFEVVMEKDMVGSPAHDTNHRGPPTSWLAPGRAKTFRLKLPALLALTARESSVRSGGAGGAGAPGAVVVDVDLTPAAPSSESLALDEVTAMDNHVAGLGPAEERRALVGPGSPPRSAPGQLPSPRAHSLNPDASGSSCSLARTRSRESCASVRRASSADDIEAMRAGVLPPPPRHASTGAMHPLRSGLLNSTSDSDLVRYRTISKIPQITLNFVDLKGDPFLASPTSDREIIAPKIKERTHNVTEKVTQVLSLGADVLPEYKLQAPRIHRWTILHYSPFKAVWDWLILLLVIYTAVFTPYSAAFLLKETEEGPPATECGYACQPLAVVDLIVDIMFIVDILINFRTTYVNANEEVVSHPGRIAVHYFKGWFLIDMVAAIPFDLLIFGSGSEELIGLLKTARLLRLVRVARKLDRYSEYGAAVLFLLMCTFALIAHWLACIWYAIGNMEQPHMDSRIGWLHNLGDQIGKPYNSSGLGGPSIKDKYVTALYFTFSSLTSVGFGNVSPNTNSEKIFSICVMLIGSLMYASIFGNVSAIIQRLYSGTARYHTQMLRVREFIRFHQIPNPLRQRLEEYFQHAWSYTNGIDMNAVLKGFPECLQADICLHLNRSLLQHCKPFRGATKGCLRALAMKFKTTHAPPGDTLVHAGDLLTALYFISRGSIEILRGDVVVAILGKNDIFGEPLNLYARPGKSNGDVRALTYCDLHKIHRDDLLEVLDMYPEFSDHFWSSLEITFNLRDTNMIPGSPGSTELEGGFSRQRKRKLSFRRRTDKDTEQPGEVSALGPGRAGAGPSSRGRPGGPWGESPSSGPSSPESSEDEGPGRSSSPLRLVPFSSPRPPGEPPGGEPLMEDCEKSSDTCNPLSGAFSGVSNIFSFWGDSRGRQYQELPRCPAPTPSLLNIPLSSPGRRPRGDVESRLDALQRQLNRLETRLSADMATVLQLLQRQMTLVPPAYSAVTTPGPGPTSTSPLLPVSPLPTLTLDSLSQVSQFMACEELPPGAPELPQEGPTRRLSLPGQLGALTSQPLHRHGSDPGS
Procedure: Compounds were screened to test their activity in blocking the hERG potassium channel. The hERG channel is heterologously expressed in a CHO (Chinese Hamster Ovary) cell line. Cells were maintained with standard tissue culture procedures and stable channel expression is maintained with 500 μg/ml G418 in the culture medium. Cells were harvested for testing on the PatchXpress automated patch clamp with Accumax (Innovative Cell Technologies, San Diego, Calif.) to isolate single cells.
The following solutions were used for electrophysiological recordings. The external solution contains: 2 mM CaCl2; 2 mM MgCl2; 4 mM KCl; 150 mM NaCl; 10 mM Glucose; 10 mM HEPES (pH 7.4 with 1M NaOH, osmolarity). The internal solution contained: 140 mM KCl, 10 mM MgCl2, 6 mM EGTA, 5 mM HEPES, 5 mM ATP (pH adjusted to 7.25 with KOH).
hERG channels are activated when the voltage is stepped to +20 mV from the −80 mV holding potential. During a 5 second step at +20 mV, the channels activate and then largely inactivate, so the currents are relatively small. Upon returning to −50 mV from +20 mV, hERG currents transiently become much larger as inactivation is rapidly removed and then the channel closes. The first step to −50 mV for 300 ms is used as a baseline for measuring the peak amplitude during the step to −50 mV after channel activation. The peak current at −50 mV was measured both under control conditions and after addition of compound.
All compounds were prepared as 10 mM DMSO stocks in glass vials. Stock solutions were mixed by vigorous vortexing and sonication for about 2 minutes at room temperature. For testing, compounds were diluted in glass vials using an intermediate dilution step in pure DMSO and then further diluted to working concentrations in external solution. Dilutions were prepared no longer than 20 minutes before use.
After achieving the whole-cell configuration, cells were monitored for 90 seconds to assess stability and washed with external solution for 66 seconds. The voltage protocol described above was then applied to the cells every 12 seconds and throughout the whole procedure. Only cells with stable recording parameters and meeting specified health criteria were allowed to enter the compound addition procedure.
External solution containing 0.1% DMSO (vehicle) was applied to the cells first to establish the control peak current amplitude. After allowing the current to stabilize for 3 to 5 minutes, 1 μM and then 10 μM test compounds was applied. Each compound concentration was added 4 times and cells were kept in test solution until the effect of the compound reaches steady state or for a maximum of 12 minutes. After addition of test compound, a positive control (1 μM Cisapride) was added and must block >95% of the current for the experiment to be considered valid. Washout in the external solution compartment was performed until the recovery of the current reaches steady state. Data were analyzed using DataXpress, Clampfit (Molecular Devices, Inc., Sunnyvale) and Origin 7 (Originlab Corp.)

| Structure (SMILES) | hERG Patch Clamp hERG % blk (1 μm test cmpd) |
| --- | --- |
| Cc1nc2ccc(Cl)cc2c(-c2ccccc2)c1C(=O)N1CCC(c2ccc(C(N)=O)cc2)CC1 [PT-017, 4-{1-[(6-chloro-2-methyl-4-phenylquinolin-3-yl)carbonyl]piperidin-4-yl}benzamide] | 28.5% |
| Cc1nc2ccc(Cl)cc2c(-c2ccccc2)c1C(=O)OC(c1ccccc1)C1CC1 (stereo not shown) [PT-012, cyclopropyl(phenyl)methyl 6-chloro-2-methyl-4-phenylquinoline-3-carboxylate] | 10.5% |

same assay, conditions: 10 μm test compound; CHO cells

| Structure (SMILES) | hERG Patch Clamp hERG % blk (10 μm test cmpd) |
| --- | --- |
| Cc1nc2ccc(Cl)cc2c(-c2ccccc2)c1C(=O)N1CCC(c2ccc(C(N)=O)cc2)CC1 [PT-017, 4-{1-[(6-chloro-2-methyl-4-phenylquinolin-3-yl)carbonyl]piperidin-4-yl}benzamide] | 51.0% |
| Cc1nc2ccc(Cl)cc2c(-c2ccccc2)c1C(=O)OC(c1ccccc1)C1CC1 (stereo not shown) [PT-012, cyclopropyl(phenyl)methyl 6-chloro-2-methyl-4-phenylquinoline-3-carboxylate] | 13.5% |
